Structures are written as SMILES.

We go through two compounds from patent US20210213049A1, “METHOD AND MOLECULAR HYDROGEN-CONTAINING COMPOSITION FOR PROMOTION OF POSTOPERATIVE RECOVERY” (MiZ Company Limited, priority 2020, published 2021).

For assay [1] the following is noted: stated as known; cited from earlier work.
The test system of assay [2] is person who underwent hip replacement surgery because of coxarthrosis. An excerpt: A person underwent hip replacement surgery because of coxarthrosis (their right leg being […] shorter). The surgery was initiated at 10:00 a.m. on Jul. 10, 2019 and completed around 11 o'clock a.m. on the same day.
Initially, use of crutches for three months was planned as in usual cases, based on the anticipated postoperative course (that is, the patient was expected to use both crutches for the first 1.5 months and one crutch for the subsequent 1.5 months).

Regarding `[2H][2H]` [D2, deuterium], in assay [1], the “superoxide eliminating effect compared with H2” value is given as “stronger superoxide eliminating effect than that of H2”.
Take `[HH]` [hydrogen, molecular hydrogen]: in assay [2] (hydrogen gas approximately 5.0%, approximately 200 mL/min, inhaled three to four hours per day from immediately after surgery, with rehabilitation, crutches for three months had been planned), the “time after the surgery at which the patient did not need to use crutches” value is listed as 13 days. In assay [2] (hydrogen inhalation from immediately after hip replacement surgery, approximately 5.0% hydrogen, three to four hours per day, with rehabilitation), the postoperative recovery entry was “achieved early postoperative recovery”. For the same compound, the “discharge from hospital (date)” value in assay [2] (surgery on Jul. 10, 2019, hydrogen inhalation from immediately after the surgery) was “July 20”.
